Test results reported in PubChem BioAssay (NCI).
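Values below derive from 48-hour exposures of cells grown in 96-well plates, with endpoints linearly interpolated between the two concentrations bracketing the appropriate inhibition level. GI50 is the concentration that inhibits growth by half. TGI denotes the concentration required for complete inhibition of growth.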

Experiments:
Experiment in all cases: NCI tumour cell line growth inhibition, 48 h
[1] = system: 786-0 renal
[2] = system: A498 renal
[3] = system: A549 NSCLC
[4] = system: ACHN renal
[5] = system: BT-549 breast
[6] = system: CAKI-1 renal
[7] = system: CCRF-CEM leukemia
[8] = system: COLO 205 colon
[9] = system: DU-145 prostate
[10] = system: EKVX NSCLC
[11] = system: HCC-2998 colon
[12] = system: HCT-116 colon
[13] = system: HCT-15 colon
[14] = system: HL-60(TB) leukemia
[15] = system: HOP-62 NSCLC
[16] = system: HOP-92 NSCLC
[17] = system: HS 578T breast
[18] = system: HT29 colon
[19] = system: IGROV1 ovarian
[20] = system: K-562 leukemia
[21] = system: KM12 colon
[22] = system: LOX IMVI melanoma
[23] = system: M14 melanoma
[24] = system: MALME-3M melanoma
[25] = system: MCF7 breast
[26] = system: MDA-MB-231 breast
[27] = system: MDA-MB-435
[28] = system: MDA-MB-468 breast
[29] = system: MOLT-4 leukemia
[30] = system: NCI-H226 lung
[31] = system: NCI-H23 lung
[32] = system: NCI-H460 lung
[33] = system: NCI-H522 lung
[34] = system: OVCAR-3 ovarian
[35] = system: OVCAR-4 ovarian
[36] = system: OVCAR-5 ovarian
[37] = system: OVCAR-8 ovarian
[38] = system: PC-3 prostate
[39] = system: RPMI-8226 leukemia
[40] = system: RXF 393 renal
[41] = system: SF-268 CNS
[42] = system: SF-295 CNS
[43] = system: SF-539 CNS
[44] = system: SK-MEL-2 melanoma
[45] = system: SK-MEL-28 melanoma
[46] = system: SK-MEL-5 melanoma
[47] = system: SK-OV-3 ovarian
[48] = system: SN12C renal
[49] = system: SNB-19 CNS
[50] = system: SNB-75 CNS
[51] = system: SR leukemia
[52] = system: SW-620 colon
[53] = system: T-47D breast
[54] = system: TK-10 renal
[55] = system: U251 CNS
[56] = system: UACC-257 melanoma
[57] = system: UACC-62 melanoma
[58] = system: UO-31 renal

O=C1Nc2cc(Cl)ccc2/C1=C/c1cccc(OCc2ccccn2)c1
GI50 [1]: 14 µM | TGI [1]: 28.9 µM | GI50 [2]: 22.1 µM | TGI [2]: 76.9 µM | GI50 [3]: 13 µM | TGI [3]: 62.2 µM | GI50 [4]: 6.07 µM | TGI [4]: 19.9 µM | GI50 [5]: 3.92 µM | TGI [5]: 16.5 µM | GI50 [6]: 2730 nM | TGI [6]: 14.1 µM | GI50 [7]: 3.1 µM | TGI [7]: > 100 µM | GI50 [8]: 10.5 µM | TGI [8]: 22.2 µM | GI50 [9]: 10.7 µM | TGI [9]: > 100 µM | GI50 [10]: 5.41 µM | TGI [10]: 67.4 µM | GI50 [11]: 11.4 µM | TGI [11]: 26.2 µM | GI50 [12]: 3.07 µM | TGI [12]: 10.5 µM | GI50 [13]: 2710 nM | TGI [13]: 16.1 µM | GI50 [14]: 2130 nM | TGI [14]: 5.1 µM | GI50 [15]: 6.95 µM | TGI [15]: 25 µM | GI50 [16]: 1850 nM | TGI [16]: 8.15 µM | GI50 [17]: 2010 nM | TGI [17]: 6.72 µM | GI50 [18]: 4.47 µM | TGI [18]: 19.4 µM | GI50 [19]: 3.89 µM | TGI [19]: 22.9 µM | GI50 [20]: 2820 nM | TGI [20]: > 100 µM | GI50 [21]: 3.77 µM | TGI [21]: 87.4 µM | GI50 [22]: 2060 nM | TGI [22]: 4.92 µM | GI50 [23]: 4.43 µM | TGI [23]: 16.8 µM | GI50 [24]: 4.23 µM | TGI [24]: 46.6 µM | GI50 [25]: 1930 nM | TGI [25]: 11.4 µM | GI50 [26]: 2460 nM | TGI [26]: 9.13 µM | GI50 [27]: 1920 nM | TGI [27]: 4.25 µM | GI50 [28]: 2540 nM | TGI [28]: 9.08 µM | GI50 [29]: 3.02 µM | TGI [29]: 11.3 µM | GI50 [30]: 11.3 µM | TGI [30]: 70.4 µM | GI50 [31]: 3.39 µM | TGI [31]: 16 µM | GI50 [32]: 3.15 µM | TGI [32]: 12.3 µM | GI50 [33]: 2430 nM | TGI [33]: 6.63 µM | GI50 [34]: 3.33 µM | TGI [34]: 16.2 µM | GI50 [35]: 5.73 µM | TGI [35]: 35.5 µM | GI50 [36]: 7.62 µM | TGI [36]: 26.8 µM | GI50 [37]: 3.79 µM | TGI [37]: 16.3 µM | GI50 [38]: 5.52 µM | TGI [38]: > 100 µM | GI50 [39]: 2930 nM | TGI [39]: 40.3 µM | GI50 [40]: 3.08 µM | TGI [40]: 14.5 µM | GI50 [41]: 4.82 µM | TGI [41]: > 100 µM | GI50 [42]: 5.69 µM | TGI [42]: 25 µM | GI50 [43]: 2630 nM | TGI [43]: 8.05 µM | GI50 [44]: 2900 nM | TGI [44]: 9.3 µM | GI50 [45]: 5.66 µM | TGI [45]: 32.3 µM | GI50 [46]: 2810 nM | TGI [46]: 13.4 µM | GI50 [47]: 10.3 µM | TGI [47]: 26.8 µM | GI50 [48]: 6.38 µM | TGI [48]: 26.1 µM | GI50 [49]: 11 µM | TGI [49]: 27.8 µM | GI50 [50]: 3.05 µM | TGI [50]: 38.8 µM | GI50 [51]: 2580 nM | TGI [51]: 10.3 µM | GI50 [52]: 3.1 µM | TGI [52]: 14.3 µM | GI50 [53]: 3.01 µM | TGI [53]: 22.6 µM | GI50 [54]: 15.4 µM | TGI [54]: 34.7 µM | GI50 [55]: 4.21 µM | TGI [55]: 15.4 µM | GI50 [56]: 7.63 µM | TGI [56]: > 100 µM | GI50 [57]: 2700 nM | TGI [57]: 13.9 µM | GI50 [58]: 3.03 µM | TGI [58]: 25 µM
